B1: papain: endopeptidase type enzyme (protein, UniProt P00784 134-345, looked up)
Papain: IPEYVDWRQKGAVTPVKNQGSCGSCWAFSAVVTIEGIIKIRTGNLNEYSEQELLDCDRRSYGCNGGYPWSALQLVAQYGIHYRNTYPYEGVQRYCRSREKGPYAAKTDGVRQVQPYNEGALLYSIANQPVSVVLEAAGKDFQLYRGGIFVGPCGNKVDHAVAAVGYGPNYILIKNSWGTGWGENGYIRIKRGTGNSYGVCGLYTSSFYPVKN

System: soluble sericin
Experiment: Hydrolytic activity of enzymes on soluble sericin (absorbance of supernatant at 271 nm)
Assay type: biochemical
Details: 10% enzyme, pH 7, 8 hours, 30-70° C. tested
Experimental: To confirm the degree of hydrolysis of sericin according to the kinds of enzyme, a total of 7 kinds of endopeptidase type alcalase, esperase, protamax, bromelain, papain, neutrase and exopeptidase type flavourzyme were prepared. At this time, sericin extracted from the sericin prepared in Preparation Example 1 at 120° C. for 30 minutes was used as a substrate sample, and after centrifugation, insoluble sericin was removed and soluble sericin was used. […]
The reactants after hydrolysis were subjected to enzyme inactivation at 85° C. for 10 min, and then the supernatant was collected by centrifugation (10,000 rpm, 10 min). After diluting the supernatant 20 times with D/W, the absorbance value measured at 271 nm, which is the maximum absorption wavelength of sericin, with a spectrophotometer (UV/VIS Nano Spectrophotometer, Nabi, Microdigital) was used as a measure of solubility.
In order to minimize the change in pH during the enzyme reaction of Preparation Example 2, the pH was adjusted using 1 M acetic acid and an average of 26.5% ammonia hydroxide. 1 mg of soluble sericin was treated with 0.1 mg of an enzyme (10% of sericin concentration), […], and then the supernatant was collected to measure the absorbance with pH change. […]

Molecule	temperature at which high hydrolytic activity was shown [°C]
bromelain	50
B1	60

From patent publication US20250319012A1, “METHOD FOR PREPARING LOW-MOLECULAR-WEIGHT SILK SERICIN, AND COSMETIC COMPOSITION COMPRISING SERICIN PREPARED THEREBY” (HEWON CO., LTD., priority 2021, published 2025)
